Laboratory results from ChEMBL document CHEMBL1671626, “In vitro profiling of ceftaroline against a collection of recent bacterial clinical isolates from across the United States” (2008).

Experiments:
Type in all cases: functional
Pasteurella multocida = experiment: Antibacterial activity against Pasteurella multocida assessed as susceptible isolates by CLSI M7-A7 broth microdilution method
Streptococcus pyogenes [1] = experiment: Antibacterial activity against erythromycin-nonsusceptible Streptococcus pyogenes assessed as resistant isolates by CLSI M7-A7 broth microdilution method
Streptococcus agalactiae [2] = experiment: Antibacterial activity against erythromycin-nonsusceptible Streptococcus agalactiae assessed as resistant isolates by CLSI M7-A7 broth microdilution method
Enterococcus faecium [3] = experiment: Antibacterial activity against vancomycin-resistant Enterococcus faecium assessed as susceptible isolates by CLSI M7-A7 broth microdilution method
Enterococcus faecalis [4] = experiment: Antibacterial activity against vancomycin-susceptible Enterococcus faecalis assessed as resistant isolates by CLSI M7-A7 broth microdilution method
Streptococcus agalactiae [5] = experiment: Antibacterial activity against erythromycin-susceptible Streptococcus agalactiae assessed as resistant isolates by CLSI M7-A7 broth microdilution method
Streptococcus pyogenes [6] = experiment: Antibacterial activity against erythromycin-susceptible Streptococcus pyogenes assessed as resistant isolates by CLSI M7-A7 broth microdilution method
Enterococcus faecalis [7] = experiment: Antibacterial activity against vancomycin-susceptible Enterococcus faecalis assessed as susceptible isolates by CLSI M7-A7 broth microdilution method
Streptococcus viridans = experiment: Antibacterial activity against penicillin-nonsusceptible Streptococcus viridans assessed as resistant isolates by CLSI M7-A7 broth microdilution method
Enterococcus faecalis [8] = experiment: Antibacterial activity against vancomycin-resistant Enterococcus faecalis assessed as susceptible isolates by CLSI M7-A7 broth microdilution method
Enterococcus faecalis [9] = experiment: Antibacterial activity against vancomycin-resistant Enterococcus faecalis assessed as resistant isolates by CLSI M7-A7 broth microdilution method
Enterococcus faecium [10] = experiment: Antibacterial activity against vancomycin-resistant Enterococcus faecium assessed as resistant isolates by CLSI M7-A7 broth microdilution method

| Structure (SMILES) | Activity (Pasteurella multocida) [%] | Activity (Streptococcus pyogenes [1]) [%] | Activity (Streptococcus agalactiae [2]) [%] | Activity (Enterococcus faecium [3]) [%] | Activity (Enterococcus faecalis [4]) [%] | Activity (Streptococcus agalactiae [5]) [%] | Activity (Streptococcus pyogenes [6]) [%] | Activity (Enterococcus faecalis [7]) [%] | Activity (Streptococcus viridans) [%] | Activity (Enterococcus faecalis [8]) [%] | Activity (Enterococcus faecalis [9]) [%] | Activity (Enterococcus faecium [10]) [%] |
| --- | --- | --- | --- | --- | --- | --- | --- | --- | --- | --- | --- | --- |
| CO/N=C(\C(=O)N[C@@H]1C(=O)N2C(C(=O)O)=C(CSc3nc(=O)c(O)nn3C)CS[C@H]12)c1csc(N)n1 [CEFTRIAXONE] | 100 | – | – | – | – | – | – | – | – | – | – | – |
| C[C@H]1COc2c(N3CCN(C)CC3)c(F)cc3c(=O)c(C(=O)O)cn1c23.C[C@H]1COc2c(N3CCN(C)CC3)c(F)cc3c(=O)c(C(=O)O)cn1c23.O [LEVOFLOXACIN] | 95.5 | 0 | 2.4 | 0 | 40.8 | 0 | 0 | 59.2 | 7.1 | 4 | 96 | 100 |
